Experimental findings from patent US6352958B1, “Cycloimido-substituted benzofused heterocyclic herbicides” (FMC Corporation, priority 1997, dated 2002) are described below.

The test system of series [1] is Johnsongrass (Sorghum halepense). As to the kind of experiment: Postemergence herbicidal activity, johnsongrass. The class given is in vivo. The conditions noted are these: Sorghum halepense, post-emergence, rate of application 0.3 Kg/Ha, rated after 12-17 days, read-out: Postemergence herbicidal activity (% control) SORHA.
In series [2] the test system is morningglory (Ipomea lacunosa or Ipomea hederacea). As to the kind of experiment: Postemergence herbicidal activity, morningglory. The class given is in vivo. Particulars: Ipomoea, post-emergence, rate of application 0.3 Kg/Ha, rated after 12-17 days, read-out: Postemergence herbicidal activity (% control) IPOSS.
The subject of series [3] is field corn (Zea mays var. Pioneer 3732). As to the kind of experiment: Preemergence herbicidal activity, corn. The class given is in vivo. The conditions noted are these: Zea mays, pre-emergence, Rate of Application 0.3 Kg/Ha, examined after 12-17 days, read-out: PREEMERGENCE HERBICIDAL ACTIVITY (% CONTROL) CRN.
The subject of series [4] is Johnsongrass (Sorghum halepense). Description: Preemergence herbicidal activity, johnsongrass. It is filed as in vivo. The conditions noted are these: Sorghum halepense, pre-emergence, Rate of Application 0.3 Kg/Ha, examined after 12-17 days, read-out: PREEMERGENCE HERBICIDAL ACTIVITY (% CONTROL) SORHA.
The subject of series [5] is common chickweed (Stellaria media). Description: Postemergence herbicidal activity, chickweed. It is filed as in vivo. Particulars: Stellaria media, post-emergence, rate of application 0.3 Kg/Ha, rated after 12-17 days, read-out: Postemergence herbicidal activity (% control) STEME.
In series [6] the test system is soybean (Glycine max var. Winchester). Description: Postemergence herbicidal activity, soybean. The class given is in vivo. The conditions noted are these: Glycine max, post-emergence, rate of application 0.3 Kg/Ha, rated after 12-17 days, read-out: Postemergence herbicidal activity (% control) SOY.

Take `CC(C)c1nc2c(-n3c(=O)cc(C(F)(F)F)n(C)c3=O)c(F)cc(Cl)c2o1` [Compound 28, 1-METHYL-6-TRIFLUOROMETHYL-3-[7-CHLORO-5-FLUORO-2-(1-METHYLETHYL)BENZOXAZOL4-YL]-2,4(1H,3H)-PYRIMIDINEDIONE]: the inhibition at 300 g/ha in series [1] is 95%; in series [2], 100%; in series [3] it was 95%; in series [4], 100%; in series [5], 100%; in series [6], 100%.

Consider `CCc1nc2c(-n3c(=O)cc(C(F)(F)F)n(C)c3=O)c(F)cc(Cl)c2[nH]1` [Compound 367, 3-(4-CHLORO-2-ETHYL-6-FLUOROBENZIMIDAZOL-7-YL)-1-METHYL-6-TRIFLUOROMETHYL-2,4(1H,3H)-PYRIMIDINEDIONE], for which the melting point is 150 to 155 °C. In addition, the inhibition at 300 g/ha in series [1] was 100%. For the same compound, the inhibition at 300 g/ha in series [2] is 100%. Besides, the inhibition at 300 g/ha in series [3] turned out to be 100%. Moreover, the inhibition at 300 g/ha in series [4] came out at 100%. Also, the inhibition at 300 g/ha in series [5] worked out at 100%. Besides, in series [6], the inhibition at 300 g/ha came to 100%.

In the case of `Cn1c(C(F)(F)F)cc(=O)n(-c2c(F)cc(Cl)c3[nH]c(C(F)(F)F)cc23)c1=O` [Compound 500, 3-(7-CHLORO-5-FLUORO-2-TRIFLUOROMETHYLINDOL-4-YL)-1-METHYL-6-TRIFLUOROMETHYL-2,4(1H,3H)-PYRIMIDINEDIONE], the melting point lay in the range of 208 to 210 °C. Also, the inhibition at 300 g/ha in series [1] was 100%. In addition, the inhibition at 300 g/ha in series [2] amounted to 100%. Moreover, in series [3], the inhibition at 300 g/ha amounted to 90%. In series [4], the inhibition at 300 g/ha is 100%. Moreover, the inhibition at 300 g/ha in series [5] turned out to be 90%. The inhibition at 300 g/ha in series [6] was determined as 95%.
